Columns and labels:
[1] = system: CD235+ erythroblasts; test: CD235+ erythroid expansion of differentiating human cord blood CD34+ progenitors (shRPS19/shRPL11 DBA models), flow cytometry; assay type: cell-based
[2] = system: c-Myb; test: NLK kinase and ubiquitination assays with c-Myb as substrate, Kp53A1 cells; assay type: cell-based, human
From the text: FIG. 4. NLK phosphorylation of c-Myb results in ubiquitination and proteasome degradation. Fetal liver CD34+ progenitors transduced with shRNA against luciferase (shLuc) or RPS19 (shRPS19) in conjunction with siRNA against NLK (siNLK) or a non-targeting sequence (NT). Cells were differentiated for 5 days and split into three aliquots. One aliquot was lysed and probed for c-Myb, NLK, RPS19 and GAPDH protein expression by western blot, while the second aliquot was subjected to qRT-PCR to examine c-Myb mRNA expression (a) The third aliquot was analyzed for NLK activity by kinase assay (b—upper) and ubiquitination assay (b—lower). Orange, blue and green bars represent the extent of NLK, Myb and raptor phosphorylation respectively. Values are expressed as a fold relative to activity in controls (shLuc/NT). White, grey and black bars designate the substrates NLK, c-Myb and raptor respectively with values designating the extent of ubiquitination observed of each substrate relative to control. (c and d) Kp53A1 cells alone, or transfected with plasmids expressing NT or siNLK were cultured for 30 h at 37 or 32° C. prior to lysis and western blotting for c-Myb, NLK and GAPDH. Myb mRNA levels were determined by qRT-PCR. (c) and NLK kinase assays and cell ubiquitination assays were performed as above. (e) Kp53A1 cells were cultured at 37 (grey bars) or 32° C. […]

[3] = system: c-Myb; test: c-Myb protein and phosphorylation by Western blot after p53 activation in Kp53A1 cells; assay type: cell-based, human
Experimental: (c and d) Kp53A1 cells alone, or transfected with plasmids expressing NT or siNLK were cultured for 30 h at 37 or 32° C. prior to lysis and western blotting for c-Myb, NLK and GAPDH. Myb mRNA levels were determined by qRT-PCR. (c) and NLK kinase assays and cell ubiquitination assays were performed as above. (e) Kp53A1 cells were cultured at 37 (grey bars) or 32° C. (black bars), in the absence or presence of 1 μM staurosporine, prior to performing NLK kinase (left) and ubiquitination (right) assays examining c-Myb as a substrate. […] Cells were lysed, normalized for protein and split into two. C-Myb was immunoprecipitated from one sample before western blot analysis for phosphorylated serine, while the other sample was subjected to Western blot for c-Myb and GAPDH.
Antibodies against RPS19 (#AB40833; Abcam; 1:200 dilution), NLK (#AB97642; Abcam; 1:1000 dilution) c-Myb (#12319; Cell Signaling; 1;1000 dilution), raptor (#AB26264; Abcam 1;1000 dilution), phosphor-Serine (#525280; Calbiochem; 1:1000 dilution), S6K (#9202; Cell Signaling; 1:500 dilution), and 4E-BP1 (#9452; Cell Signaling; 1:500 dilution), and GAPDH (#MAB374; Millipore; 1:10000) were used according to manufacturer's instructions. The target proteins were analyzed by using SuperSignal® West Pico Chemiluminescent Substrate for horseradish peroxidase (Thermo Scientific). […]

[4] = system: CD235+ erythroblasts; test: CD235+ erythroid expansion of differentiating human cord blood CD34+ progenitors (shRPS19/shRPL11 DBA models), flow cytometry; assay type: cell-based; details: control (shLuc), exogenous TGFβ 5 ng/ml
Experimental: FIG. 7. […] (a) Differentiating cord blood CD34+ progenitors were transduced with shRNA against luciferase or RPS19 and treated with inhibitors at working concentrations for TGFβ inhibition every three days. Cells were counted and CD235+ erythroid cells were assessed by flow cytometry after 15 days. (b) Prior to flow cytometry, 5000 cells per group were taken from differentiating cultures for NLK kinase assay. (c) CD34+ progenitors were transduced with shRNA against luciferase or RPS19 and non-targeting or siRNA against NLK. After sorting, samples were split into two groups and either treated with vehicle or SD208 every three days. After 15 days cells were counted and subject to flow cytometry to compare the expansion of maturing CD235+ erythroid (left panel) and CD11b+ myeloid cells (right panel). (d) Cord Blood CD34+ progenitors were transduced with shRNA against luciferase (left panel) or RPS19 (right panel) differentiated in erythroid media for 15 days alone, or in the presence of SB525334 or SD208 at 5 μM. Cells were counted and CD235+ erythroid (D—upper) and CD11b+ myeloid cell (D—lower) percentages were determined by flow cytometry. The number of erythroid or myeloid cells is expressed as a percentage of the number of that lineage with no cytokine or drug treatment.
FIG. 8. […] Human cord blood CD34+ progenitors were transduced with lentivirus co-expressing GFP with shRNA against luciferase (shLuc), RPS19 (shRPS19) or RPL11 (shRPL11). After 36 hours cells GFP+ cells were differentiated in erythroid media in the presence or absence of 5 μM SD208 for 15 days. Cells were counted and assessed for cell surface expression of CD235. (a) The percentage of CD235+ cells was multiplied by the cell count and values were compared as a percentage of untreated controls. (b) Normalizing values relative to untreated RPS19-insufficiency progenitors facilitates direct comparison of erythropoiesis between untreated and SD208-treated cultures. (c) Approximately 3000 cells were removed from differentiating treatments at day 6 and NLK activity was assessed. Values were normalized to reflect a fold induction relative to untreated controls. (d) Lin-Kit+ hematopoietic progenitors were obtained from three mouse embryos expressing tetracycline-inducible shRNA against RPS19 at day E14.5 or three untreated mice, and thee mature RPL11^+/+ or three mature RPL11^+/lox mice treated with tamoxifen for eight weeks. Cells were grown in the presence or absence of doxycycline and/or SD208 for eight days prior to counting and assessing for ter119 surface expression. Values were expressed as a percentage relative to untreated controls (e) and directly comparing the effect of SD208 on erythropoiesis in ribosomal-insufficiency by expressing values relative to untreated ribosome-insufficient cultures (f). At day 5 approximately 3000 cells were assayed for NLK kinase assay (g). CD34+ HSPCs were isolated from three healthy control and three DBA patient mononuclear bone marrow aspirates by magnetic bead sorting and differentiated in the presence or absence of SD208 for 14 days. After counting the total cell population, the ratio of CD235+ erythroblasts was determined by flow cytometry and number of CD235+ erythroblasts calculated. This was expressed as a percentage of the average number of erythroid cells present in untreated healthy controls. (h) The direct effect of SD208 on erythroid expansion in DBA patient samples was calculated following normalization of untreated DBA patient samples as 1-fold, (i) At day five, 3000 cells from each of the differentiating cultures was analyzed for NLK activity by kinase assay and are expressed as a fold induction relative to untreated healthy controls.

[5] = system: CD11b+ myeloid cells; test: CD11b+ myeloid expansion of differentiating human cord blood CD34+ progenitors; assay type: cell-based; details: control (shLuc), exogenous TGFβ 5 ng/ml
Experimental: FIG. 7. SD208 increases erythroid expansion in human model of DBA through inhibition of NLK and not TGFβ. (a) Differentiating cord blood CD34+ progenitors were transduced with shRNA against luciferase or RPS19 and treated with inhibitors at working concentrations for TGFβ inhibition every three days. Cells were counted and CD235+ erythroid cells were assessed by flow cytometry after 15 days. (b) Prior to flow cytometry, 5000 cells per group were taken from differentiating cultures for NLK kinase assay. (c) CD34+ progenitors were transduced with shRNA against luciferase or RPS19 and non-targeting or siRNA against NLK. After sorting, samples were split into two groups and either treated with vehicle or SD208 every three days. After 15 days cells were counted and subject to flow cytometry to compare the expansion of maturing CD235+ erythroid (left panel) and CD11b+ myeloid cells (right panel). […] Cells were counted and CD235+ erythroid (D—upper) and CD11b+ myeloid cell (D—lower) percentages were determined by flow cytometry. The number of erythroid or myeloid cells is expressed as a percentage of the number of that lineage with no cytokine or drug treatment.
FIG. 9. […] Cells were counted and the percentage expressing CD235+ erythroid (left) and CD11b+ myeloid (right) was determined by flow cytometry. […] Values are expressed as a fold induction relative to untreated. (Panel C) Transduced and sorted CD34+ progenitors were cultured in methylcellulose in the presence or absence of metformin for 16 days and BFU-E erythroid (left) and CFU-GM myeloid (right) colonies scored. […] To directly compare the effect of metformin in each group, metformin-treated cultures were normalized to untreated cultures and are expressed as a fold induction of the untreated control. […]
Cells were incubated with human Fc receptor binding inhibitor (#14-9161-73; eBioscience) followed by primary antibodies CD235-APC (#306607; BioLegend) and CD11b-PE/Cy5 (#101209; BioLegend). Data were collected on a DxP10 flow cytometer (Cytek) and analyzed by using FlowJo Software, v.9.7.2.

Molecule: Cc1cccc(-c2[nH]c(C(C)(C)C)nc2-c2ccc3c(c2)OCO3)n1 [SB505124]
- erythroid and myeloid expansion restored, % of cultures not treated with TGFβ ([1]; TGFβ-treated control and RPS19-insufficiency, 5 μM): at least 95%

Molecule: CN[C@@H]1C[C@H]2O[C@@](C)([C@@H]1OC)n1c3ccccc3c3c4c(c5c6ccccc6n2c5c31)C(=O)NC4 [staurosporine]
- c-Myb phosphorylation, fold increase relative to controls ([2]; 1 µM): 1.3 fold
- c-Myb ubiquitination, fold of control ([2]; Kp53A1 lysate with elevated p53 activity, 1 μM staurosporine, 7.4-fold without inhibitor): 2.3 fold

Molecule: CC(=O)N[C@@H](CSC(=O)[C@]1([C@@H](O)C(C)C)NC(=O)[C@H](C)[C@@H]1O)C(=O)O [lactacystin]
- c-Myb protein levels ([3]; Kp53A1, 16 hours post p53 activation, lactacystin 10 μM, chloroquine 30 μM): sustained
- c-Myb phosphorylation ([3]; Kp53A1, after p53 activation, up to 48 h): sustained phosphorylation to 48 h

Molecule: TGFβ: exogenous TGFβ (5 ng/ml)
- reduction of erythroid progenitors [4]: 85%
- reduction of myeloid progenitors [5]: 80%
- additional reduction of erythroid expansion ([1]; RPS19-insufficient progenitors, exogenous TGFβ): 86%
